Results taken from patent US8993586B2, “N1/N2-lactam acetyl-CoA carboxylase inhibitors” (Pfizer Inc., priority 2010, dated 2015).

Legend:
[1] = molecular target: recombinant human ACC1 (rhACC1) (Homo sapiens (Human), UniProt Q13085); test: recombinant hACC1 Transcreener ADP detection FP assay; format: biochemical; settings: 50 μM ATP, 120 min at 25° C.
Experimental: (§1) For example direct inhibition of ACC activity, for the compound of Formula (I) was determined using preparations of recombinant human ACC1 (rhACC1) and recombinant human ACC2 (rhACC2).
[1] Preparation of rhACC1. Two liters of SF9 cells, infected with recombinant baculovirus containing full length human ACC1 cDNA, were suspended in ice-cold lysis buffer (25 mM Tris, pH 7.5; 150 mM NaCl; 10% glycerol; 5 mM imidazole (EMD Bioscience; Gibbstown, N.J.); 2 mM TCEP (BioVectra; Charlottetown, Canada); Benzonase nuclease (10000 U/100 g cell paste; Novagen; Madison, Wis.); EDTA-free protease inhibitor cocktail (1 tab/50 mL; Roche Diagnostics; Mannheim, Germany). Cells were lysed by 3 cycles of freeze-thaw and centrifuged at 40,000×g for 40 minutes (4° C.). Supernatant was directly loaded onto a HisTrap FF crude column (GE Healthcare; Piscataway, N.J.) and eluted with an imidazole gradient up to 0.5 M over 20 column volumes (CV). ACC1-containing fractions were pooled and diluted 1:5 with 25 mM Tris, pH 7.5, 2 mM TCEP, 10% glycerol and direct loaded onto a CaptoQ (GE Healthcare) column and eluted with an NaCl gradient up to 1 M over 20 CV's. Phosphate groups were removed from purified ACC1 by incubation with lambda phosphatase (100 U/10 μM target protein; New England Biolabs; Beverly, Mass.) for 14 hours at 4° C.; okadaic acid was added (1 μM final concentration; Roche Diagnostics) to inhibit the phosphatase. Purified ACC1 was exchanged into 25 mM Tris, pH 7.5, 2 mM TCEP, 10% glycerol, 0.5 M NaCl by 6 hour dialysis at 4° C. Aliquots were prepared and frozen at −80° C.
[2] Measurement of rhACC1 inhibition. hACC1 was assayed in a Costar #3676 (Costar, Cambridge, Mass.) 384-well plate using the Transcreener ADP detection FP assay kit (Bellbrook Labs, Madison, Wis.) using the manufacturer's recommended conditions for a 50 μM ATP reaction. The final conditions for the assay were 50 mM HEPES, pH 7.2, 10 mM MgCl2, 7.5 mM tripotassium citrate, 2 mM DTT, 0.1 mg/mL BSA, 30 μM acetyl-CoA, 50 μM ATP, and 10 mM KHCO3 Typically, a 10 μl reaction was run for 120 min at 25° C., and 10 μl of Transcreener stop and detect buffer was added and the combination incubated at room temp for an additional 1 hour. The data was acquired on a Envision Fluorescence reader (PerkinElmer) using a 620 excitation Cy5 FP general dual mirror, 620 excitation Cy5 FP filter, 688 emission (S) and a 688 (P) emission filter.

[2] = molecular target: recombinant human ACC2 (rhACC2) (Homo sapiens (Human), UniProt O00763); test: recombinant hACC2 Transcreener ADP detection FP assay; format: biochemical; settings: 50 uM ATP, 50 min at 25° C.
Experimental: as §1
[3] Preparation of rhACC2. Human ACC2 inhibition was measured using purified recombinant human ACC2 (hrACC2). Briefly, a full length Cytomax clone of ACC2 was purchased from Cambridge Bioscience Limited and was sequenced and subcloned into PCDNA5 FRT TO-TOPO (Invitrogen, Carlsbad, Calif.). The ACC2 was expressed in CHO cells by tetracycline induction and harvested in 5 liters of DMEM/F12 with glutamine, biotin, hygromycin and blasticidin with 1 μg/mL tetracycline (Invitrogen, Carlsbad, Calif.). The conditioned medium containing ACC2 was then applied to a Softlink Soft Release Avidin column (Promega, Madison, Wis.) and eluted with 5 mM biotin. […] The purified ACC2 was dialyzed in 50 mM Tris, 200 mM NaCl, 4 mM DTT, 2 mM EDTA, and 5% glycerol. […] For measurement of ACC2 activity and assessment of ACC2 inhibition, test compounds were dissolved in DMSO and added to the rhACC2 enzyme as a 5× stock with a final DMSO concentration of 1%.
[4] Measurement of human ACC2 inhibition. hACC2 was assayed in a Costar #3676 (Costar, Cambridge, Mass.) 384-well plate using the Transcreener ADP detection FP assay kit (Bellbrook Labs, Madison, Wis.) using the manufacturer's recommended conditions for a 50 uM ATP reaction. The final conditions for the assay were 50 mM HEPES, pH 7.2, 5 mM MgCl2, 5 mM tripotassium citrate, 2 mM DTT, 0.1 mg/mL BSA, 30 μM acetyl-CoA, 50 μM ATP, and 8 mM KHCO3 Typically, a 10 μl reaction was run for 50 min at 25° C., and 10 μl of Transcreener stop and detect buffer was added and the combination incubated at room temp for an additional 1 hour. The data was acquired on an Envision Fluorescence reader (PerkinElmer) using a 620 excitation Cy5 FP general dual mirror, 620 excitation Cy5 FP filter, 688 emission (S) and a 688 (P) emission filter.

Sequence of recombinant human ACC2 (rhACC2) (O00763 whole entry V2141I): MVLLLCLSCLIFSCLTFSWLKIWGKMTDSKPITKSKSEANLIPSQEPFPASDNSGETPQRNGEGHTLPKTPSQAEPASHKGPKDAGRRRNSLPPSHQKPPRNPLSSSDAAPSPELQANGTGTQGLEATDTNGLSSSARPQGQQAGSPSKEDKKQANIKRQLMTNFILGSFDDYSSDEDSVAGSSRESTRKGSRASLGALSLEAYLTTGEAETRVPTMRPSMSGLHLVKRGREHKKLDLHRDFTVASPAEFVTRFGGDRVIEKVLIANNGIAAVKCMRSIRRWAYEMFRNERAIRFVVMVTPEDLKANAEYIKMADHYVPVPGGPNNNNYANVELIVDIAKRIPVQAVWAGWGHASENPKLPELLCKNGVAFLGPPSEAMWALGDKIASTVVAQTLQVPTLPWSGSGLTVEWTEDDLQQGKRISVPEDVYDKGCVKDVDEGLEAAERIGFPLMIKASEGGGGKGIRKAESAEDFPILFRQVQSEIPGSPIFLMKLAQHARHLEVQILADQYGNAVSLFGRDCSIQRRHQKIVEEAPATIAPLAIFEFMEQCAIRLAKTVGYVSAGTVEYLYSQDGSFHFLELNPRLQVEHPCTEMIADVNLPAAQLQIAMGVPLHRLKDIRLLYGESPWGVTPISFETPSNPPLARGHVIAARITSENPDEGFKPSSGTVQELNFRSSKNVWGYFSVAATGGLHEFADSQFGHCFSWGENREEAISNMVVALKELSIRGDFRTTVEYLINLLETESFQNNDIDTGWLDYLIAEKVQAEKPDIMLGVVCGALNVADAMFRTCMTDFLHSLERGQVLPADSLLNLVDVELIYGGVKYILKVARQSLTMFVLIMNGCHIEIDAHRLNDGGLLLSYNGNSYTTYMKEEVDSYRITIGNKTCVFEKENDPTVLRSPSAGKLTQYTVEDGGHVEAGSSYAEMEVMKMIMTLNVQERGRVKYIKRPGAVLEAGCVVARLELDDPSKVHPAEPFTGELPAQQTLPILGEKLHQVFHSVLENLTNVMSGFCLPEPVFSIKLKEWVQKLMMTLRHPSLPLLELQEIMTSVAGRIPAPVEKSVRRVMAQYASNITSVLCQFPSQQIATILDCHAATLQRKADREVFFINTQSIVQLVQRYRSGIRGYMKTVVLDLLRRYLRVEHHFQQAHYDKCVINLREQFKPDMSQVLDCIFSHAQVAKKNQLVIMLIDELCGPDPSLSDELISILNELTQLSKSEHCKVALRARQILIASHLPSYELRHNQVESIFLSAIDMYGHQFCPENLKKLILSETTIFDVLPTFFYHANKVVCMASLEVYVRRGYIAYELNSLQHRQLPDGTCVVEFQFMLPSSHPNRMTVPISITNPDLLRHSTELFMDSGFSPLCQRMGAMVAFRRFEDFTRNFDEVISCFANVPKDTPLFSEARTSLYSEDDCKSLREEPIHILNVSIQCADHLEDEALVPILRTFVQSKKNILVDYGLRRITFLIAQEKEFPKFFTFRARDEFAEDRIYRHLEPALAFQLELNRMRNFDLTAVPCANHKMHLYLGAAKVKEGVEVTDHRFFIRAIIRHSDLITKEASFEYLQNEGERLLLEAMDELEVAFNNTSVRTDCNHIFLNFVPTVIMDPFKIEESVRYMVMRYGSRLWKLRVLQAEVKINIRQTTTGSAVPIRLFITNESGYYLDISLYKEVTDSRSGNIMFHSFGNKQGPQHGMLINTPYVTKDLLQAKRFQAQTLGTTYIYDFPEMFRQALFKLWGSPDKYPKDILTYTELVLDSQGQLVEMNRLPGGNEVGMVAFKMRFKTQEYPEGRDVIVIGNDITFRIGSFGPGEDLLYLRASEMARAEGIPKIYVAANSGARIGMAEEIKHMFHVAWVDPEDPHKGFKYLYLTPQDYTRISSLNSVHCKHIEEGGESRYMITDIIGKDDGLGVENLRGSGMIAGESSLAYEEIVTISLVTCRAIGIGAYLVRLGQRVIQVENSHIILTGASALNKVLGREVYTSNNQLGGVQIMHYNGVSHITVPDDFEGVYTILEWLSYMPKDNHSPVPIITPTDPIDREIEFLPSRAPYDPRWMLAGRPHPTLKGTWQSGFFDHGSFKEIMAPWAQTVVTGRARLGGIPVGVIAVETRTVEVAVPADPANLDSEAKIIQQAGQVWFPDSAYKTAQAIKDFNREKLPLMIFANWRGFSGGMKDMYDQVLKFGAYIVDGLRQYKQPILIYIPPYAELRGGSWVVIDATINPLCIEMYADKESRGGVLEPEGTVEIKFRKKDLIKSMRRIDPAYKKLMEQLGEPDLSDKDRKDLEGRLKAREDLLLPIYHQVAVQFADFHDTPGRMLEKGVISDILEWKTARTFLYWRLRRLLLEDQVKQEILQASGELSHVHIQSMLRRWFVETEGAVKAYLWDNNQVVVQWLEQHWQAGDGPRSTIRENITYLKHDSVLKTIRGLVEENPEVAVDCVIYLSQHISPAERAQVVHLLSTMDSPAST

IC50 [1] | IC50 [2] | Compound
507 nM | 44 nM | CC(C)(C)n1cc2c(n1)C(=O)NC1(CCN(C(=O)c3ccc4ccc(NC5COC5)nc4c3)CC1)C2 [Example 113]
23 nM | 5.6 nM | COc1cc(C(=O)N2CCC3(CC2)Cc2cn(C(C)(C)C)nc2C(=O)N3)cc2cn[nH]c12 [Example 99, 2′-tert-butyl-1-(7-methoxy-1H-indazole-5-carbonyl)-4′,6′-dihydrospiro[piperidine-4,5′-pyrazolo[3,4-c]pyridin]-7′(2′H)-one]
163 nM | 19 nM | CC(C)(C)n1cc2c(n1)C(=O)NC1(CCN(C(=O)c3ccc4c(C(F)(F)F)n[nH]c4c3)CC1)C2 [Example 83]
17 nM | 2.7 nM | CC(C)(C)n1cc2c(n1)C(=O)NC1(CCN(C(=O)c3ccc4ccnc(NC5CCC5)c4c3)CC1)C2 [Example 118]
73 nM | 8.9 nM | CN(C)c1nccc2ccc(C(=O)N3CCC4(CC3)Cc3cn(C(C)(C)C)nc3C(=O)N4)cc12 [Example 103, 2′-tert-butyl-1-(1-(dimethylamino)isoquinoline-7-carbonyl)-4′,6′-dihydrospiro[piperidine-4,5′-pyrazolo[3,4-c]pyridin]-7′(2′H)-one]
88 nM | 17 nM | CC(C)(C)n1cc2c(n1)C(=O)NC1(CCN(C(=O)c3ccc4cn[nH]c4c3)CC1)C2 [Example 52]
15 nM | 2.4 nM | CCN(C)c1ccc2ccc(C(=O)N3CCC4(CC3)Cc3cn(C(C)(C)C)nc3C(=O)N4)cc2n1 [Example 108]
62 nM | 21 nM | CC(C)(C)n1cc2c(n1)C(=O)NC1(CCN(C(=O)c3ccc4ccnc(N)c4c3)CC1)C2 [Example 100, 1-(1-aminoisoquinoline-7-carbonyl)-2′-tert-butyl-4′,6′-dihydrospiro[piperidine-4,5′-pyrazolo[3,4-c]pyridin]-7′(2′H)-one]
94 nM | 13 nM | CC(C)(C)n1cc2c(n1)C(=O)NC1(CCN(C(=O)c3ccc4[nH]nc(N)c4c3)CC1)C2 [Example 61]
185 nM | 28 nM | CNc1ccc2cc(C(=O)N3CCC4(CC3)Cc3cn(C(C)(C)C)nc3C(=O)N4)ccc2n1 [Example 69]
8.5 nM | 3.8 nM | COc1ccc2ccc(C(=O)N3CCC4(CC3)Cc3cn(C(C)(C)C)nc3C(=O)N4)cc2c1 [Example 49]
105 nM | 9.2 nM | CNc1cc2ccc(C(=O)N3CCC4(CC3)Cc3cn(C(C)(C)C)nc3C(=O)N4)cc2cn1 [Example 95]
29 nM | 2.9 nM | CC(C)(C)n1cc2c(n1)C(=O)NC1(CCN(C(=O)c3ccc4ccnc(NC5CC5)c4c3)CC1)C2 [Example 115]
65 nM | 8.6 nM | CNc1n[nH]c2ccc(C(=O)N3CCC4(CC3)Cc3cn(C(C)(C)C)nc3C(=O)N4)cc12 [Example 93]
209 nM | 31 nM | COc1cc2ccc(C(=O)N3CCC4(CC3)Cc3cn(C(C)(C)C)nc3C(=O)N4)cc2cn1 [Example 90]
79 nM | 11 nM | CNc1nc2cc(C(=O)N3CCC4(CC3)Cc3cn(C(C)(C)C)nc3C(=O)N4)ccc2[nH]1 [Example 75]
36 nM | 5.3 nM | COc1ccc2cc(C(=O)N3CCC4(CC3)Cc3cn(C(C)(C)C)nc3C(=O)N4)ccc2c1 [Example 46]
46 nM | 5.3 nM | COc1n[nH]c2ccc(C(=O)N3CCC4(CC3)Cc3cn(C(C)(C)C)nc3C(=O)N4)cc12 [Example 81]
256 nM | 56 nM | CC(C)(C)n1cc2c(n1)C(=O)NC1(CCN(C(=O)c3ccc4c(N)n[nH]c4c3)CC1)C2 [Example 65]
47 nM | 6.1 nM | COCCNc1nccc2ccc(C(=O)N3CCC4(CC3)Cc3cn(C(C)(C)C)nc3C(=O)N4)cc12 [Example 120]
30 nM | 9.2 nM | COc1ccc2ncc(C(=O)N3CCC4(CC3)Cc3cn(C(C)(C)C)nc3C(=O)N4)cc2c1 [Example 48]

Further lines, the compound ahead of its results:

Compound | IC50 [1] | IC50 [2]
CC(C)n1ncc2c1C(=O)NC1(CCN(C(=O)c3cnc4[nH]cc(Cl)c4c3)CC1)C2 [Example 31] | 179 nM | 96 nM
Cc1cc(C(=O)N2CCC3(CC2)Cc2cnn(C(C)(C)C)c2C(=O)N3)cc2cn[nH]c12 [Example 7] | 62 nM | 47 nM
CC(C)n1ncc2c1C(=O)NC1(CCN(C(=O)c3ccc4[nH]nc(Cl)c4c3)CC1)C2 [Example 34] | 116 nM | 50 nM
CC(C)n1ncc2c1C(=O)NC1(CCN(C(=O)c3cnc4[nH]ccc4c3)CC1)C2 [Example 9] | 648 nM | 560 nM
COc1cc(C(=O)N2CCC3(CC2)Cc2cn(C(C)(C)C)nc2C(=O)N3)cc2c(C)n[nH]c12 [Example 87] | 17 nM | 2.1 nM
CC(C)n1ncc2c1C(=O)NC1(CCN(C(=O)c3ccc4cccnc4c3)CC1)C2 [Example 24] | 688 nM | 320 nM
COc1ccc2ccc(C(=O)N3CCC4(CC3)Cc3cnn(C(C)C)c3C(=O)N4)cc2n1 [Example 28] | 158 nM | 56 nM
CC(C)n1ncc2c1C(=O)NC1(CCN(C(=O)c3ccc4c(cnn4C)c3)CC1)C2 [Example 13] | 2040 nM | 1550 nM
CC(C)n1ncc2c1C(=O)NC1(CCN(C(=O)c3cc(Cl)c4[nH]ncc4c3)CC1)C2 [Example 11] | 88 nM | 72 nM
CC(C)n1ncc2c1C(=O)NC1(CCN(C(=O)c3cc4ncccc4[nH]3)CC1)C2 [Example 18] | 657 nM | 719 nM
CC(C)n1ncc2c1C(=O)NC1(CCN(C(=O)c3cnc4cc[nH]c4c3)CC1)C2 [Example 10] | 403 nM | 498 nM
Cc1cc(C(=O)N2CCC3(CC2)Cc2cn(C(C)C)nc2C(=O)N3)cc2cn[nH]c12 [Example 42] | 68 nM | 29 nM
CC(C)n1ncc2c1C(=O)NC1(CCN(C(=O)c3cnc4c(Cl)c[nH]c4c3)CC1)C2 [Example 32] | 154 nM | 56 nM
CC(C)n1ncc2c1C(=O)NC1(CCN(C(=O)c3ccc4cnccc4c3)CC1)C2 [Example 22] | 1250 nM | 843 nM
COc1cc(C(=O)N2CCC3(CC2)Cc2cnn(C(C)C)c2C(=O)N3)cc2[nH]ncc12 [Example 12] | 35 nM | 37 nM
CC(C)(C)n1cc2c(n1)C(=O)NC1(CCN(C(=O)c3cc(C(F)(F)F)c4[nH]ncc4c3)CC1)C2 [Example 78] | 155 nM | 34 nM
Cc1nc2cc(C(=O)N3CCC4(CC3)Cc3cnn(C(C)C)c3C(=O)N4)ccc2[nH]1 [Example 1, 1′-isopropyl-1-(2-methyl-1H-benzo[d]imidazole-5-carbonyl)-4′,6′-dihydrospiro[piperidine-4,5′-pyrazolo[3,4-c]pyridin]-7′(1′H)-one] | 417 nM | 312 nM
